Here are results for 30 molecules from US11555031B2, “Compounds and methods for regulating insulin secretion” (The Broad Institute, Inc., priority 2017, dated 2023).

Each structure is given as a SMILES string.

Tested on in one series: not listed separately
The series can be described thus: Solubility (medicinal chemistry measurements). It counts as physicochemical. The following applies: relative to Compound 8.
On to `Cc1cccc(NC(=O)c2ccc(OCc3c(C)cncc3C)cc2)c1C` [Compound 49, N-(2,3-Dimethyl-phenyl)-4-(3,5-dimethyl-pyridin-4-ylmethoxy)-benzamide], for which the solubility entry is listed as “lower solubility than Compound 8”.

A further series relates to INS-1E cells. The series is described as follows: Luciferase Insulin Secretion Assay (proinsulin-Gaussia luciferase reporter). It counts as cell-based, rat. Further details: key to Activity: Active: a compound is identified as active if the compound has a Z-score greater than 3 in the presence of 16.7 mM glucose; Partial activity indicates that the compound does promote insulin secretion (at lower Z-scores); Lost Glucose Dependence: In some cases, insulin secretion was promoted at both measured insulin concentrations. As to conditions: INS-1E cells; 2.8 mM vs 16.7 mM glucose. The source says:
A high-throughput luminescent insulin secretion assay was developed and performed to identify compounds that amplified insulin secretion only in the presence of a permissive glucose environment (FIG. 3). The assay used in compound screening is described in International Patent Publication No. WO2013070796A3, PCT/US2012/063982, and in Burns et al., High-Throughput Luminescent Reporter of Insulin Secretion for Discovering Regulators of Pancreatic Beta-Cell Function. Cell Metab. 2015 Jan. 6; 21(1):126-37.
The assay is a luminescent insulin secretion assay created by inserting Gaussia luciferase within the C-peptide portion of the insulin prohormone. Gaussia luciferase was chosen because of its small size and bright luciferase signal. To ensure full activity of the luciferase, a version was used that was codon-optimized for expression in mammalian cells. The enzyme was flanked with additional cleavage sites for prohormone convertase 2 (PC2), such that no extra amino acids should be present on the ends of the enzyme after processing within the vesicles (FIG. 4). Rat (INS-1E; Merglen et al., 2004) beta-cell lines stably expressing the reporter construct were generated. Assays using this cell type are referred to herein as Luciferase Insulin Secretion Assay.
A search for glucose-dependent insulin secretagogues was conducting by screening 384,216 compounds at a single concentration (10 μM) in duplicate using the Luciferase Insulin Secretion Assay, to identify those that increase insulin secretion only in the presence of high glucose (11.1 mM) (FIG. 6). These assays were performed in 1536 well format. A Z′ factor of 0.35 was obtained with respect the positive control (300 μM IBMX). The cutoff value selected was 45% activation, which was 3-4 standard deviations above background (solid uppermost line; FIG. 6).
For standard secretion assays, INS-1E cells were plated in 96-well format, preincubated for 1 hr in Krebs Ringer Buffer (KRB) with 2.8 mM glucose, and then stimulated for 1 hr in fresh KRB containing varying amounts of glucose and compounds. Insulin or C-peptide concentration was determined using an ELISA (Mercodia), following the manufacturer's protocol. Luciferase activity was determined from the same samples by adding the coelenterazine substrate to the supernatant to a final concentration of 10 μM and reading on a standard plate reader (BioTek).
INS-1E cells were expanded to 80% confluence in their growth medium, washed once in PBS, and preincubated for 1 hr at 37° C. in KRB with 2.8 mM glucose. Cells were then dissociated, spun at 300×g for 2 min, resuspended in fresh KRB without glucose, and filtered through 40 μm mesh (Becton Dickinson). Next, the cells were counted and diluted in KRB to 1×10^6 cells per ml, and glucose was added as required for each experiment. Cells were then seeded in 384-well format, 3×10^4 cells in 30 μl per well, using a Multidrop Combi device (Thermo Scientific). Compounds were pinned into each well using a Vario robot (CyBio) to a final concentration of 30 μM, and the plates were then incubated for 2 hr at 37° C. For assays involving a transfer step, the plates were then centrifuged at 300×g for 2 min, and 20 μl of supernatant was transferred to a new 384-well plate. Coelenterazine substrate was then added to a final concentration of 10 μM, and luciferase activity was determined using a standard plate reader (BioTek).
(In a reporter assay the amount or activity of a reporter protein is the signal.)
As to `Cc1ccccc1NC(=O)c1ccc(OCc2c(C)noc2C)cc1` [Compound 17], the “glucose-dependent (glucose-stimulated) insulin secretion, luciferase reporter” value is reported as “some positive effect on secretion”. The same measure, in the same setting: with `COc1ccccc1S(=O)(=O)Nc1ccc2c(c1)CN(C)C(=O)N2` [PF1, reference compound] the entry was “neither of the known bromodomain inhibitors (PF1 or CBP30) affect secretion to the extent of Compound 8”; with `COc1ccccc1S(=O)(=O)Nc1ccc2c(c1)CN(C)C(=O)N2` [PF-1, reference compound], “None of the compounds assayed increased glucose-dependent insulin secretion”.

The same series, now with this note: INS-1E cells; high compound concentrations.
As for `COc1ccccc1S(=O)(=O)Nc1ccc2c(c1)CN(C)C(=O)N2` [PF-1, reference compound], the “effect on glucose-stimulated insulin secretion at high concentrations” value is reported as “inhibitory effects”.

The same series, now with this note: Rattus norvegicus, INS-1E; glucose concentration of 16.7 mM.
A word on the EC50: it is the concentration needed to bring the measured effect to its halfway point. `Cc1cccc(NC(=O)c2ccc(OCc3c(C)cncc3C)cc2)c1C` [Compound 49, N-(2,3-Dimethyl-phenyl)-4-(3,5-dimethyl-pyridin-4-ylmethoxy)-benzamide]: the EC50 was approximately 82 nM.

The series is the same for the next values; noted with them: glucose dependence of insulin secretion; Z-score in the presence of 16.7 mM glucose.
As to `Cc1cccc(NC(=O)c2ccc(OCc3c(C)cncc3C)cc2)c1C` [Compound 49, N-(2,3-Dimethyl-phenyl)-4-(3,5-dimethyl-pyridin-4-ylmethoxy)-benzamide], the result was Inactive. Still for that read-out and setting: the result for `Cc1cccc(NC(=O)c2ccc(N(C)Cc3c(C)noc3C)cc2)c1C` [Compound 56] reads “Inactive”; that for `Cc1cccc(NC(=O)c2ccc(OCc3c(C)noc3C)c(CCCN=[N+]=[N-])c2)c1C` [Compound 89, 3-(3-Azido-propyl)-4-(3,5-dimethyl-isoxazol-4-ylmethoxy)-N-(2,3-dimethyl-phenyl)-benzamide], “Inactive”. With `Cc1cccc(-c2nc3cc(NCc4c(C)noc4C)ccc3[nH]2)c1C` [Compound 34], the result was Inactive.

For the molecule `Cc1noc(C)c1COc1ccc(C(=O)Nc2cccc3c2CCCC3)cc1` [Compound 73, 4-(3,5-Dimethyl-isoxazol-4-ylmethoxy)-N-(5,6,7,8-tetrahydro-naphthalen-1-yl)benzamide], the outcome was Inactive. For `Cc1cccc(NC(c2ccc(NCc3c(C)noc3C)cc2)C(F)(F)F)c1C` (centres unmarked) [Compound 33], the outcome was Inactive.

For `Cc1cccc(NC(=O)c2ccc(OCc3c(C)noc3C)cc2)c1CO` [Compound 70], the outcome was Active. The same measure, in the same setting: the result for `Cc1cccc(-c2ncc(-c3ccc(NCc4c(C)noc4C)cc3)[nH]2)c1C` [Compound 29] reads “Inactive”.

On to `Cc1cccc(-c2noc(-c3ccc(NCc4c(C)noc4C)cc3)n2)c1C` [Compound 35], for which the result was Inactive.

With `COCc1cccc(NC(=O)c2ccc(OCc3c(C)noc3C)cc2)c1` [Compound 84, 4-(3,5-Dimethyl-isoxazol-4-ylmethoxy)-N-(3-methoxymethyl-phenyl)-benzamide], the outcome was Inactive. Same read-out and setting: with `CC(=O)c1ccccc1NC(=O)c1ccc(OCc2c(C)noc2C)cc1` [Compound 85] the entry was “Inactive”; with `Cc1cccc(NC(=O)c2ccc(OCc3c(C)noc3C)cc2O)c1C` [Compound 46], “Inactive”; with `Cc1noc(C)c1COc1ccc(C(=O)Nc2cccc(C#N)c2C)cc1` [Compound 83, N-(3-Cyano-2-methyl-phenyl)-4-(3,5-dimethyl-isoxazol-4-ylmethoxy)-benzamide], “Inactive”. Still for that read-out and setting: the result for `Cc1cccc(C)c1NC(=O)c1ccc(OCc2c(C)noc2C)cc1` [Compound 77] reads “Inactive”; that for `Cc1noc(C)c1COc1ccc(C(=O)Nc2cccc3c2CCC3)cc1` [Compound 81, 4-(3,5-Dimethyl-isoxazol-4-ylmethoxy)-N-indan-4-yl-benzamide], “Inactive”. As for `Cc1noc(C)c1COc1ccc(C(=O)Nc2cccc3ccccc23)cc1` [Compound 74, 4-(3,5-Dimethyl-isoxazol-4-ylmethoxy)-N-naphthalen-1-yl-benzamide], the outcome was Inactive. Regarding `Cc1cccc(NC(=O)c2ccc(OCc3cnccc3Cl)cc2)c1C` [Compound 66, 4-(4-Chloro-pyridin-3-ylmethoxy)-N-(2,3-dimethyl-phenyl)-benzamide], the result was Inactive. On the same count and under the same terms, the result for `Cc1cccc(NC(=O)c2ccc(OCc3cccnc3Cl)cc2)c1C` [Compound 67, 4-(2-Chloro-pyridin-3-ylmethoxy)-N-(2,3-dimethyl-phenyl)-benzamide] reads “Inactive”.

Consider `Cc1cccc(-c2nc(C)c(-c3ccc(NCc4c(C)noc4C)cc3)[nH]2)c1C` [Compound 30], for which the outcome was Inactive.

Consider `Cc1cccc(NC(=O)c2ccc(OCc3c(C)noc3C)cc2)c1C#N` [Compound 69, N-(2-Cyano-3-methyl-phenyl)-4-(3,5-dimethyl-isoxazol-4-ylmethoxy)-benzamide], for which the result was Active. Turning to `Cc1cccc(NC(=O)c2ccc(OCc3c(C)noc3C)cc2)n1` [Compound 82], the outcome was Inactive.

On to `Cc1cc(NCc2c(C)noc2C)ccc1-c1cnc(-c2cccc(C)c2C)[nH]1` [Compound 31], for which the outcome was Inactive. On to `Cc1cccc(NC(=O)c2ccc(/C=C\c3c(C)noc3C)cc2)c1C` [Compound 55 (cis)], for which the outcome was Inactive. The same measure, in the same setting: the result for `Cc1ccncc1COc1ccc(C(=O)Nc2cccc(C)c2C)cc1` [Compound 64, N-(2,3-Dimethyl-phenyl)-4-(4-methyl-pyridin-3-ylmethoxy)-benzamide] reads “Inactive”; that for `Cc1cccc(NC(=O)c2ccc(OCc3cnoc3)cc2)c1C` [Compound 47, N-(2,3-Dimethyl-phenyl)-4-(isoxazol-4-ylmethoxy)-benzamide], “Inactive”.

Tested on in a further series: not listed separately
The series can be described thus: Plasma stability, rat. It counts as in vitro ADME.
Conditions: not given
As to the method: (§1) Measurements were performed on human, mouse (CD-1) and rat (SD) microsomes to determine the t1/2, the plasma protein binding (“PPB”) and the plasma stability (“PS”).
In turn, `CC1CC(OC(=O)C(O)c2ccccc2)CC(C)(C)N1C` (centres unmarked) [eucatropine, reference compound] registered a PS of 32.4 % remaining.

Tested on in another series: not listed separately
The series is described as follows: Plasma stability, mouse.
Conditions: not given
The format is in vitro ADME. Here is the method: as §1
Molecule `CC1CC(OC(=O)C(O)c2ccccc2)CC(C)(C)N1C` (centres unmarked) [eucatropine, reference compound] showed a PS of 24.6 % remaining.

For the next series, the system named is alpha-TC-1-6. The series is described as follows: Luminescent glucagon secretion assay in alpha-cell line. It counts as cell-based. As to conditions: compared with DMSO negative control. Here is the method: FIG. 10 depicts the quantification of α-cell secretory activity in cells treated with DMSO, KCl, or Compound 8, using a luminescent assay for glucagon secretion.
To investigate the cell-type specificity of the compound, and to exclude the possibility that Compound 8 acts as a generic secretagogue, the compound was tested on secretion from a rodent alpha-cell line, “alpha-TC-1-6,” using a luciferase reporter for glucagon secretion that mirrors the insulin secretion assay (FIG. 10).
For `[Cl-].[K+]` [KCl, potassium chloride, reference compound], the “alpha-cell secretory activity (luciferase reporter for glucagon secretion)” value is recorded as “causes secretion”.

Tested on in another series: not listed separately
The series can be described thus: Plasma stability, human. The format is in vitro ADME.
Conditions: not given
Here is the method:
as §1
With `CC1CC(OC(=O)C(O)c2ccccc2)CC(C)(C)N1C` (centres unmarked) [eucatropine, reference compound], the PS is on record as 1.1 % remaining.
